The source of these data is ChEMBL document CHEMBL1201862, “PubChem BioAssay data set” (2004).

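Interpolation was linear, between the two tested concentrations surrounding the appropriate level; five concentrations were tested over 48 hours in 96-well plates. At the GI50, growth is halved.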 Active and inactive are the calls of the source. Cut-off read from the data, not from the text of the source: active = GI50 up to about 1.1 µM and inactive = higher.

Holding throughout (assay): NCI anticancer screen, dose series, 48 h
Test [1] concerns SF-268.
The test system of test [2] is 786-0.
In test [3] the test system is MOLT-4.
For test [4], the system named is NCI-H460.
Test [5] deals with HCT-15.
For test [6], the system named is SNB-75.
The test system of test [7] is RXF 393.
Test [8] relates to UACC-62.
The test system of test [9] is CAKI-1.
Test [10] concerns SK-MEL-5.
In test [11] the test system is UO-31.
Test [12] concerns TK-10.
Test [13] has as its system U-251.
For test [14], the system named is SF-539.
Test [15] deals with MDA-MB-231.
Test [16] concerns MDA-N.
The test system of test [17] is SN12C.
Test [18] deals with NCI-H23.
Test [19] has as its system Malme-3M.
The test system of test [20] is LOX IMVI.

Turning to `Brc1ccc(-c2cc(-c3ccc4c(c3)OCO4)c(-c3cccs3)n2Cc2ccccc2)cc1`, the GI50 in test [1] is > 100 µM (inactive); in [2] it was > 100 µM (inactive); in [3] it was > 100 µM (inactive); in test [4], > 100 µM (inactive); in test [5] it was more than 100 µM; in [6], > 100 µM (inactive). The GI50 in test [7], in test [8], in [9], in [10], in test [11] and in test [12] was > 100 µM (inactive) each time. Besides, the GI50 in test [13], in test [14], in [15], in [16] and in test [17] was > 100 µM (inactive) each time.
`CN(C)/C=N/c1ccc2nonc2c1`: the GI50 in [1] is > 100 µM (inactive); in test [2], > 100 µM (inactive); in test [3] it was > 100 µM (inactive); in test [18], > 100 µM (inactive); in test [4] it was > 100 µM (inactive); in test [5] it was more than 100 µM. The GI50 in test [6], in test [7], in test [8], in test [9], in [10] and in test [19] was > 100 µM (inactive) each time. For the same compound, the GI50 in test [11], in [12], in test [14], in [15], in test [16] and in [17] was > 100 µM (inactive) in each case.
On to `Cc1ccc(N2C(N)=C(C#N)C(C#N)(C#N)C2c2ccccc2)cc1` (stereo not given), for which the GI50 is 24.9 µM (inactive) in test [1]; 14.2 µM (inactive) in [2]; 2.31 µM (inactive) in [3]; 18.1 µM (inactive) in test [18]; 6.71 µM in test [5]; 13.2 µM (inactive) in test [6]. The GI50 in [7] was 6.64 µM (inactive); in test [8] it was 11.4 µM (inactive); in test [9], 8.97 µM (inactive); in test [10] it was 8.63 µM (inactive); in test [19], 11.5 µM (inactive); in [11] it was 15.8 µM (inactive). In addition, the GI50 in [12] is 14.4 µM (inactive); in [13], 17.3 µM (inactive); in test [14] it was 14.2 µM (inactive); in [20], 11.5 µM (inactive); in test [15] it was 11.5 µM (inactive); in test [16], 3.08 µM (inactive). Further, the GI50 in [17] was 14.4 µM (inactive).
In the case of `O=C(CSc1ncnc2[nH]cnc12)c1ccccc1`, the GI50 in test [1] is > 100 µM (inactive); in test [2] it was > 100 µM (inactive); in test [3] it was > 65.6 µM (inactive); in test [18], > 100 µM (inactive); in test [4], > 100 µM (inactive); in test [5] it was more than 100 µM. The GI50 in test [7] was > 76.2 µM (inactive); in test [8], > 100 µM (inactive); in test [9] it was 75.2 µM (inactive); in test [10], 86.3 µM (inactive); in test [19] it was > 100 µM (inactive); in [11], > 95.7 µM (inactive). Further, the GI50 is > 66.7 µM (inactive) in [12]; > 100 µM (inactive) in test [13]; > 100 µM (inactive) in [14]; 79.4 µM (inactive) in test [20]; > 100 µM (inactive) in test [15]; 86.3 µM (inactive) in [16]. The GI50 in test [17] was > 100 µM (inactive).
Turning to `NNC(=O)c1ccc[n+](CCc2ccccc2)c1`, the GI50 in test [1] was > 100 µM (inactive); in [2] it was > 100 µM (inactive); in [3], > 100 µM (inactive); in test [18] it was > 100 µM (inactive); in [4] it was > 100 µM (inactive); in [5] it was more than 100 µM. For the same compound, the GI50 in test [6], in [7], in test [8], in test [9], in test [10] and in test [19] was > 100 µM (inactive) each time. Besides, the GI50 in [11], in test [12], in [13], in test [20], in [15] and in test [16] was > 100 µM (inactive) each time. Besides, the GI50 in test [17] was > 100 µM (inactive).
On to `Cc1cccc2c1Oc1ccccc1C2NC(=O)c1ccc([N+](=O)[O-])cc1` (stereo not given), for which the GI50 in test [1] was 95.3 µM (inactive); in [2] it was > 100 µM (inactive); in test [3] it was > 100 µM (inactive); in [18] it was > 100 µM (inactive); in test [4], > 100 µM (inactive); in test [5], more than 100 µM. The GI50 was 23.7 µM (inactive) in [7]; > 100 µM (inactive) in test [8]; 69 µM (inactive) in test [9]; > 100 µM (inactive) in test [10]; 86.7 µM (inactive) in test [19]; > 100 µM (inactive) in [11]. Further, the GI50 in test [12] is > 100 µM (inactive); in test [13] it was 57.8 µM (inactive); in test [20] it was > 100 µM (inactive); in test [15], 66.1 µM (inactive); in test [16], > 100 µM (inactive); in [17], 29.3 µM (inactive).
As to `N=C(N)/N=C(\N)Nc1cnccn1`, the GI50 in [2] was > 100 µM (inactive); in test [3], > 100 µM (inactive); in [18], > 100 µM (inactive); in [5], more than 100 µM; in test [6] it was > 100 µM (inactive); in [7] it was > 100 µM (inactive). The GI50 in [8], in test [9], in [10], in test [19], in test [11] and in [12] was > 100 µM (inactive) throughout. In addition, the GI50 in [13], in test [14], in [20], in [15], in test [16] and in [17] was > 100 µM (inactive) throughout.
On to `Cc1cn([C@H]2CN(O)C[C@@H](CO)O2)c(=O)[nH]c1=O`, for which the GI50 was > 100 µM (inactive) in test [1]; > 100 µM (inactive) in test [2]; > 100 µM (inactive) in test [3]; > 100 µM (inactive) in [4]; more than 100 µM in test [5]; > 100 µM (inactive) in test [6]. For the same compound, the GI50 in [7], in test [8], in test [9], in [10], in [11] and in test [12] was > 100 µM (inactive) throughout. The GI50 in test [13], in [14], in test [15], in [16] and in [17] was > 100 µM (inactive) each time.
As to `CCOC(=O)[C@@H]1ON2O[C@H](OC3CCCCC3c3ccccc3)C[C@H]3OC(=O)[C@@H]1C32` (stereo not given in full), the GI50 in [1] is > 100 µM (inactive); in test [2], > 100 µM (inactive); in test [3], > 100 µM (inactive); in test [18], 27 µM (inactive); in test [4], 39.8 µM (inactive); in [5], more than 100 µM. In addition, the GI50 in test [6], in test [7], in test [8], in test [9], in test [10] and in test [11] was > 100 µM (inactive) throughout. Also, the GI50 in test [12], in test [13], in test [14], in test [20], in test [15] and in test [16] was > 100 µM (inactive) throughout. Moreover, the GI50 in [17] is > 100 µM (inactive).
For the compound `O=C(O)C1C(C(=O)Nc2ccc3c(c2)Cc2ccccc2-3)C2(Cl)C(Cl)=C(Cl)C1(Cl)C2(Cl)Cl` (stereo not given), the GI50 was 26.2 µM (inactive) in test [1]; 30.3 µM (inactive) in [2]; 11.6 µM (inactive) in test [3]; 17.5 µM (inactive) in test [18]; 21.5 µM in test [5]; 26.2 µM (inactive) in [6]. For the same compound, the GI50 was 20.5 µM (inactive) in test [7]; 16.1 µM (inactive) in test [8]; 41.9 µM (inactive) in test [9]; 14.2 µM (inactive) in [10]; 20.6 µM (inactive) in test [19]; 22.5 µM (inactive) in test [11]. Besides, the GI50 in test [12] is 27.2 µM (inactive); in test [13], 15.2 µM (inactive); in test [14], 13.2 µM (inactive); in [20], 18.4 µM (inactive); in [15], 20.2 µM (inactive); in test [16], 35.6 µM (inactive). The GI50 in [17] is 33.3 µM (inactive).
For the compound `CC(C)C1N(C)c2ccc(Cl)cc2[C@H]2c3ccccc3CCN12` (stereo not given in full), the GI50 was > 100 µM (inactive) in test [1]; > 100 µM (inactive) in test [2]; 37.8 µM (inactive) in [3]; > 100 µM (inactive) in test [18]; 94.8 µM (inactive) in test [4]; 37.1 µM in test [5]. For the same compound, the GI50 in [6] was 61.8 µM (inactive); in test [7], 47.5 µM (inactive); in [8], 25.4 µM (inactive); in test [11] it was 98.4 µM (inactive); in [12], 89.9 µM (inactive); in test [13], 61.5 µM (inactive). The GI50 in test [14] was > 100 µM (inactive); in test [20], 31.6 µM (inactive); in test [15] it was 24.4 µM (inactive); in [16], 26.1 µM (inactive); in test [17], 45.2 µM (inactive).
